Test results reported in patent US20040152903A1, “6-chloro-3-pyridylmethylpropylamine derivatives, preparation process thereof and bactericides” (priority 2004, published 2004).

Columns and labels:
wheat powdery mildew = experiment: Permeable mobility fungicidal effect test in leaf section of wheat powdery mildew; assay type: in vivo; details: length of non-contracted area relative to compound (m-2); 200 mg/l, 0.5 μl applied to wheat leaf (Abukumawase)
Description: (Permeable Mobility Fungicidal Effect Test in Leaf Section of Wheat Powdery Mildew) In the test example 4, permeable mobility fungicidal effect test was performed on the leaf section of wheat powdery mildew with regard to the compounds I-1 to 27 according to the present invention and the comparative compounds (a) to (d), and (m-1) to (m-3) with the method described later. <Test Method> The compound in the form of a wettable powder obtained by Formulation 2 or the like was diluted and suspended with water to a predetermined concentration (200 mg/l), and 0.5 μl of the suspension was applied to a 2 to 3 cm leaf portion from the root of the three leaves of the 4th to 4.5th leaf period wheat (variety: Abukumawase) cultured by using a square plastic pot (size: 6.4 cm×6.4 cm). After these wheat leaves were subject to still standing in a glass house (temperature: 20 to 24° C., relative humidity: 20 to 70 RH) for one day, the spores of wheat powdery mildew were inoculated over the leaves by sprinkling the same with a brush from an infected leaf, a disease was contracted in the same glass house. The length of a non-contracted area generated from the applied portion to the direction of the leaf top was measured, and a relative mobility to the compound (m-2) was calculated with the following calculation […] by using the comparative compound (m-2) as a standard compound. Relative mobility=(Length of non-contracted area in each chemical section (cm)/Length of non-contracted area of compound (m-2) (cm)) (Equation 4)

cucumber powdery mildew = experiment: Test of control effect on cucumber powdery mildew; assay type: in vivo; details: wettable powder 100 mg/l, 100 liters/10 a, cucumber (Sagamihanpakufushinari), examined 9th to 14th day after inoculation
Description: (Test of Control Effect on Cucumber Powdery Mildew) The wettable powders formulated by using each of the compounds I-1 to 27 according to the present invention and the comparative compounds (a) to (d), (m-1) and (m-3) were each diluted and suspended with water to a predetermined concentration (100 mg/l), the suspension was sprinkled over the first to the second leaf period cucumbers (variety: “[…]”) cultivated by using a square plastic pot (size: 6.4 cm×6.4 cm) in a rate of 100 liters/10 a (ares). After the sprinkled leaves were air-dried, the spores were inoculated over the leaves by sprinkling the same with a brush from an infected leaf, a disease was contracted in a glass house (temperature: 20 to 24° C., relative humidity: 20 to 70 RH). On the 9th to 14th day after the inoculation, the infection degree was examined according to the following scale and the control value of each compound was calculated by the following calculation equation 2: (Examination Scale) [table]

[1] = system: Pseudocercosporella herpotrichoides; experiment: Antifungal activity test (PDA plate, hypha extension inhibition); assay type: cell-based; details: 25 ppm in PDA culture medium
Description: (§1) (Antifungal Activity Test against Various Pathogenic Fungi) For each of the compounds I-1 to 27 of the present invention and the comparative compounds (a) to (d), (m-1) and (m-3), 20 mg was weighed and dissolved in 2 ml of dimethylsulfoxide, and a double dilution row in 10 steps was prepared by further using dimethylsulfoxide. A 0.6 ml portion of these solutions was each added to 60 ml of a PDA culture medium (potato-dextrose-agar culture medium) at about 60° C., they were well mixed in a 100 ml Erlenmeyer flask, the solution was poured into a schale and was solidified, the plate culture media containing the compounds according to the present invention with final concentrations of 100, 50.0, 25.0, 12.5, 6.3, 3.2, 1.6, 0.8, 0.4 and 0.2 mg/l were prepared. On the other hand, the specimen bacteria cultured on the plate culture media beforehand was punched by a 4 mm diameter cork borer, and was inoculated on the plate culture media containing the aforementioned chemicals. After the inoculation, the bacteria were cultured at the optimum growth temperature of each bacterium for 1 to 7 days (for this optimum growth temperature, LIST OF CULTURES 1996 Microorganisms 10th edition published by Fermentation Research Institute (Foundation) can be referred to.), and the growth of the bacteria was measured by the diameter of a colony. […]

Pyricularia oryzae = assay type: cell-based; details: 12.5 ppm in PDA culture medium
Rhynchosporium secalis = experiment: Antifungal activity test (PDA plate, hypha extension inhibition); assay type: cell-based; details: 100 ppm in PDA culture medium
Description: as §1

Row | Compound | Relative Mobility (wheat powdery mildew) | Control Value (cucumber powdery mildew) | Growth Inhibition P.h (25) [1] | Growth Inhibition P.o (12.5) (Pyricularia oryzae) | Growth Inhibition R.s (100) (Rhynchosporium secalis)
1 | CC(Cc1ccc(C(F)(F)F)c(F)c1F)CN(C)Cc1ccc(Cl)nc1 (stereo not shown) [Compound I-10] | 3 | 100 | 5 (Hypha extension inhibition rate of 90% or more) | 4 (Hypha extension inhibition rate of from 70% to less than 90%) | 4 (Hypha extension inhibition rate of from 70% to less than 90%)
2 | CC(Cc1ccc2c(c1)OC(F)(F)O2)CN(C)Cc1ccc(Cl)nc1 (stereo not shown) [Compound I-24] | 6 | 100 | 5 (Hypha extension inhibition rate of 90% or more) | 4 (Hypha extension inhibition rate of from 70% to less than 90%) | 5 (Hypha extension inhibition rate of 90% or more)
